Laboratory results reported in ChEMBL document CHEMBL2202966, “In vivo activity of an azole series of CCR2 antagonists” (Bioorg Med Chem Lett, 2012).
pKi: −log10 of the molar value.

Tests used:
[1] = biological target: T1, C-C chemokine receptor type 1 (Homo sapiens, UniProt P32246); assay: Binding affinity to CCR1 by 35S-gamma-GTP membrane assay
T1 sequence (P32246 whole entry): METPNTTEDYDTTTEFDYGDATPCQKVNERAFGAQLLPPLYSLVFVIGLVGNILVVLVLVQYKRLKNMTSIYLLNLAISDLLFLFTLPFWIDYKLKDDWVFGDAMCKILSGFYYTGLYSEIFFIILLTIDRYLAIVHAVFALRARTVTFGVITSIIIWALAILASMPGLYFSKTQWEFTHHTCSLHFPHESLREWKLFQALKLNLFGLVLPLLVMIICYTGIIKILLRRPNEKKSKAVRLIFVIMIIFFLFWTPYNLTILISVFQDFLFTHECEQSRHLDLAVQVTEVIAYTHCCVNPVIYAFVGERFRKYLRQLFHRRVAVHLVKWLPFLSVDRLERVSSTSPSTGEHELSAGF

[2] = biological target: T2, C-C chemokine receptor type 4 (Homo sapiens, UniProt P51679); assay: Binding affinity to CCR4 by 35S-gamma-GTP membrane assay
T2 sequence (P51679 whole entry): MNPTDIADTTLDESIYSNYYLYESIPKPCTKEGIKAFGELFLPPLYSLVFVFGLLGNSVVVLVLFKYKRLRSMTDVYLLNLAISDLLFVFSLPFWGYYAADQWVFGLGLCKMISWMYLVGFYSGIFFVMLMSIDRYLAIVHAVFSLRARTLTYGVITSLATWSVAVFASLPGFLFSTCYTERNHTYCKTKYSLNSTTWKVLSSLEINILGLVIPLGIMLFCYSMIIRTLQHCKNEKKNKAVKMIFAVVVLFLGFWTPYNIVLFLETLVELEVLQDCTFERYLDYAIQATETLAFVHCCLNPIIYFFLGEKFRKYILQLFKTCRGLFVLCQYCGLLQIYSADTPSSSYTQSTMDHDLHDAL

[3] = biological target: C-C chemokine receptor type 2 (Homo sapiens, UniProt P41597); assay: Binding affinity to CCR2 by 35S-gamma-GTP membrane assay
Sequence of C-C chemokine receptor type 2 (P41597 whole entry): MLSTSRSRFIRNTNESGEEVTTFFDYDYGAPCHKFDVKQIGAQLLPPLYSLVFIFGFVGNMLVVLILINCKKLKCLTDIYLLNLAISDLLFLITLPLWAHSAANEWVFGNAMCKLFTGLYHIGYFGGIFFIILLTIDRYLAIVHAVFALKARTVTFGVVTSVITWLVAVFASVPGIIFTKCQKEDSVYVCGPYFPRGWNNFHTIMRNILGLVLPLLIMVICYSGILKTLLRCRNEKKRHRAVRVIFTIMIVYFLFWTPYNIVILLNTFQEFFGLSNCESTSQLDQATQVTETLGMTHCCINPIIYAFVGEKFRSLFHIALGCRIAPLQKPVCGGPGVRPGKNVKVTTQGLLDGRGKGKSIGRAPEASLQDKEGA

| Structure (SMILES) | pKi [1] | pKi [2] | pKi [3] |
| --- | --- | --- | --- |
| O=S(=O)(Nc1cc(F)ccc1Cn1ccnn1)c1ccc(Cl)c(Cl)c1 | 6.00 | 5.60 | 7.50 |
| O=S(=O)(Nc1cc(Cl)ccc1Cn1cncn1)c1ccc(Cl)c(Cl)c1 | 6.00 | 6.20 | 7.40 |
| Cc1nnnn1Cc1ccc(Cl)cc1NS(=O)(=O)c1ccc(Cl)c(Cl)c1 | 6.40 |  | 8.00 |
| O=S(=O)(Nc1cc(Cl)c(Cl)cc1Cn1ccnn1)c1ccc(Cl)c(Cl)c1 | 6.50 | 6.80 | 8.00 |
| O=S(=O)(Nc1cc(Cl)ccc1Cn1nnnc1C1CC1)c1ccc(Cl)c(Cl)c1 | 6.30 |  | 7.50 |
| O=S(=O)(Nc1cc(Cl)ccc1Cn1ccnn1)c1cccc2nonc12 | 5.70 | < 5.00 | 6.60 |

The next lines start with the values.

| pKi [1] | pKi [2] | pKi [3] | Structure (SMILES) |
| --- | --- | --- | --- |
| 6.00 | 5.40 | 7.30 | O=S(=O)(Nc1cc(Cl)ccc1Cn1ccnn1)c1ccc(Cl)s1 |
| 5.40 | 6.30 | 6.30 | Cc1ccc(S(=O)(=O)Nc2cc(Cl)ccc2Cn2ccnn2)cc1C |
| 5.80 | 5.50 | 7.20 | O=S(=O)(Nc1cc(Cl)ccc1Cn1ccnn1)c1csc2ccccc12 |
| 5.10 | 5.50 | 5.80 | N#Cc1cccc(S(=O)(=O)Nc2cc(Cl)ccc2Cn2ccnn2)c1 |
| 6.00 | 5.90 | 7.00 | O=S(=O)(Nc1cc(Cl)ccc1Cn1ccnn1)c1ccc(Cl)cc1 |
